# Measured values taken from US12226523B2, “Method for preparing self-assembled nanoparticle releasing soluble microneedle structure” (RESEARCH & BUSINESS FOUNDATION SUNGKYUNKWAN UNIVERSITY, priority 2016, dated 2025).
# Tested on: cells (HCT-116)
# Assay: Intracellular delivery of nanoparticles produced from soluble microneedles (confocal fluorescence microscope)
# Assay type: cell-based
# Conditions: HCT-116 cells, 4 hours after treatment
# Procedure: To this end, soluble microneedles in which a hydrophobic fluorescent material, DiD (Invitrogen, Carlsbad, CA, USA), used in cell membrane staining, was loaded were manufactured according to the method described in Example 1. Afterward, cells (HCT-116) were treated with a solution in which the microneedles were dissolved according to the method of Example 2, 4 hours later, intracellular delivery of nanoparticles produced from the soluble microneedles was observed using a confocal fluorescence microscope.
smiles,measurement,value
"CCCCCCCCCCCCCCCCCCN1C(=CC=CC=CC2=[N+](CCCCCCCCCCCCCCCCCC)c3ccccc3C2(C)C)C(C)(C)c2ccccc21.[I-] [DiD, 1,1′-dioctadecyl-3,3,3′,3′-tetramethylindodicarbocyanine iodide]",cellular localisation of the hydrophobic fluorescent material DiD,stained the cell membrane
